Results as given in US20230322785A1, “ADENOSINE A2A AND A2B RECEPTOR DUAL ANTAGONISTS FOR IMMUNO-ONCOLOGY” (Merck Sharp & Dohme LLC, priority 2020, published 2023).

Tests used:
[1] = target: T1, human A2A adenosine receptor (Homo sapiens, UniProt P29274); assay: A2A binding affinity, Method (A): radioligand filtration binding with [3H]SCH58261; details: membranes of HEK293 or CHO cells expressing the human receptor
T1 construct: expressed in transfected cells; host or cells: HEK293 or CHO cells
Excerpt: Method (A) describes the procedure used to measure A2A binding affinity using radioligand binding. Method (B) describes the procedure used to measure A2A binding affinity using SPA technology. The method used to measure A2B binding affinity is also described below. The method used to determine the A2A IC50 value reported for each compound in the table is indicated next to the reported value. The A2B IC50 value measured using the A2B binding affinity assay is shown in the table next to the compound under the corresponding A2A value.
The A2A receptor affinity binding assay measured the amount of binding of a tritiated ligand with high affinity for the A2A adenosine receptor to membranes made from HEK293 or CHO cells recombinantly expressing the human A2A adenosine receptor, in the presence of varying concentrations of a compound of the invention. The data were generated using either filtration binding or a homogenous scintillation proximity assay (SPA).
Method (A): Measurement of A2A Binding Affinity Using Radioligand Binding
148 µL (5 µg/mL) membranes (Perkin Elmer, Cat. No. RBHA2aM400UA) and 2 µL compounds of the invention to be tested (test compound) were transferred to individual wells of a 96-well polypropylene assay plate and incubated for 15 to 30 min at room temperature. [^3H] SCH58261 ((7-(2-phenylethyl)-5-amino-2-(2-furyl)-pyrazolo-[4,3-e]-1,2,4-triazolo[1,5-c]pyrimidine)) was diluted in assay buffer (50 mM Tris pH 7.4, 10 mM MgCl2, 0.005% Tween20) to a concentration of 4 nM and 50 µL transferred to each well of the assay plate. To define total and non-specific binding, wells containing 1% DMSO and 1 µM ZM241385 (Tocris Bioscience, Cat. No. 1036) respectively, were also included. The assay plate was incubated at room temperature for 60 min with agitation. Using a FilterMate Harvester® (Perkin Elmer), the contents of the assay plate were filtered through a UniFilter-96® PEI coated plate (Perkin Elmer Cat. No. 6005274 or 6005277). Filtering was achieved by aspirating the contents of the assay plate for 5 sec, then washing and aspirating the contents three times with ice-cooled wash buffer (50 mM Tris-HCl pH 7.4, 150 mM NaCl) and allowing the vacuum manifold to dry the plate for 30 sec. The filter plate was incubated for at least 1 h at 55° C. and allowed to dry. The bottom of the filter plate was sealed with backing tape. 40 µL Ultima Gold™ (Perkin Elmer, Cat. No. 6013329) was added to each well of the filter plate and the top of the plate was sealed with TopSeal-A PLUS® clear plate seal (Perkin Elmer, Cat. No. 6050185). The plate was incubated for at least 20 min, and then the amount of radioactivity remaining in each well was determined using a TopCount® (Perkin Elmer) scintillation counter. After normalization to total and non-specific binding, the percent effect at each compound concentration was calculated. The plot of percent effect versus the log of compound concentration was analyzed electronically using a 4-parameter logistic fit based on the Levenberg-Marquardt algorithm to generate IC50 values.

[2] = target: T1, human A2A adenosine receptor; assay: A2A binding affinity, Method (B): scintillation proximity assay (SPA) with [3H]SCH58261; details: membranes of HEK293 or CHO cells expressing the human receptor
In short: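 Membranes from HEK293 or CHO cells expressing the receptor were pretreated with 20 µg/mL adenosine deaminase for 15 min, then bound to WGA SPA beads. [3H]SCH58261 was added at 1.25 nM in Ca/Mg-free DPBS with 10 mM MgCl2, incubated 1 h at RT, then settled 1 h. Non-specific binding used 1 µM CGS 15943. IC50 came from 4-parameter logistic fits.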

T1 sequence (P29274 whole entry): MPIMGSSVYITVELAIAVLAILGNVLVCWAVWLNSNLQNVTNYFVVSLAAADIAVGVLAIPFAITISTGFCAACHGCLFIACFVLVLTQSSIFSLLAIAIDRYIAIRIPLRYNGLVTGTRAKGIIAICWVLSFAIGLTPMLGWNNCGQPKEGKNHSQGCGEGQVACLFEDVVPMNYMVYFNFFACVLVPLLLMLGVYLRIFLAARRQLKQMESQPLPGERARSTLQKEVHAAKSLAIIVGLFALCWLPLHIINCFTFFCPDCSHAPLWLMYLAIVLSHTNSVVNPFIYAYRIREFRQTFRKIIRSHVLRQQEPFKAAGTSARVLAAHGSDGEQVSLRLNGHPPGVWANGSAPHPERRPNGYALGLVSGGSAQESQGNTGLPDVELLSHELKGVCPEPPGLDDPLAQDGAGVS

IC50 [1] [µM] | IC50 [2] [µM] | SMILES
 | 0.115 | COc1cccc2c1nc(N)n1nc(CN(Cc3ccc(C(F)(F)F)cc3)S(=O)(=O)C(F)(F)F)nc21 [Example 19.3, N-((5-amino-7-methoxy-[1,2,4]triazolo[1,5-c]quinazolin-2-yl)methyl)-1,1,1-trifluoro-N-(4-(trifluoromethyl)benzyl)methanesulfonamide]
 | 0.0504 | COc1cccc2c1nc(N)n1nc(CN(Cc3ccc(OC(F)(F)F)cc3)S(=O)(=O)C(F)(F)F)nc21 [Example 19.4, N-((5-amino-7-methoxy-[1,2,4]triazolo[1,5-c]quinazolin-2-yl)methyl)-1,1,1-trifluoro-N-(4-(trifluoromethoxy)benzyl)methanesulfonamide]
 | 0.0176 | COc1cccc2c1nc(N)n1nc(CN(Cc3ccc(C(F)(F)F)cc3)S(=O)(=O)C3CC3)nc21 [Example 19.5, N-((5-amino-7-methoxy-[1,2,4]triazolo[1,5-c]quinazolin-2-yl)methyl)-N-(4-(trifluoromethyl)benzyl)cyclopropanesulfonamide]
 | 0.0507 | COc1cccc2c1nc(N)n1nc(CN(Cc3ccc(C(F)(F)F)cc3)C(=O)NC(C)C)nc21 [Example 20.2, 1-((5-amino-7-methoxy-[1,2,4]triazolo[1,5-c]quinazolin-2-yl)methyl)-3-isopropyl-1-(4-(trifluoromethyl)benzyl)urea]
 | 0.0226 | COc1cccc2c1nc(N)n1nc(CN(Cc3ccc(OC(F)(F)F)cc3)C(=O)NC(C)C)nc21 [Example 20.3, 1-((5-amino-7-methoxy-[1,2,4]triazolo[1,5-c]quinazolin-2-yl)methyl)-3-isopropyl-1-(4-(trifluoromethoxy)benzyl)urea]
 | 0.0057 | COc1cccc2c1nc(N)n1nc(CNC(=O)NCc3ccc(Cl)cc3)nc21 [Example 20.4, 1-((5-amino-7-methoxy-[1,2,4]triazolo[1,5-c]quinazolin-2-yl)methyl)-3-(4-chlorobenzyl)urea]
 | 0.0111 | C=CCN(Cc1ccc(C(F)(F)F)cc1)Cc1nc2c3cccc(OC)c3nc(N)n2n1 [Example 21.1, 2-((allyl(4-(trifluoromethyl)benzyl)amino)methyl)-7-methoxy-[1,2,4]triazolo[1,5-c]quinazolin-5-amine]
 | 0.0167 | COc1cccc2c1nc(N)n1nc(CCNCc3ccc(C(F)(F)F)cc3)nc21 [Example 22.3, 7-methoxy-2-(2-((4-(trifluoromethyl)benzyl)amino)ethyl)-[1,2,4]triazolo[1,5-c]quinazolin-5-amine]
 | 0.0159 | COc1cccc2c1nc(N)n1nc(CCN[C@H](C)c3ccc(C(F)(F)F)cc3)nc21 [Example 22.4, (R)-7-methoxy-2-(2-((1-(4-(trifluoromethyl)phenyl)ethyl)amino)ethyl)-[1,2,4]triazolo[1,5-c]quinazolin-5-amine]
 | 0.0041 | COc1cccc2c1nc(N)n1nc(CCN(C)Cc3ccc(C(F)(F)F)cc3)nc21 [Example 22.5, 7-methoxy-2-(2-(methyl(4-(trifluoromethyl)benzyl)amino)ethyl)-[1,2,4]triazolo[1,5-c]quinazolin-5-amine]
 | 0.0097 | COc1cccc2c1nc(N)n1nc(CCNCc3ccccc3C(F)(F)F)nc21 [Example 22.6, 7-methoxy-2-(2-((2-(trifluoromethyl)benzyl)amino)ethyl)-[1,2,4]triazolo[1,5-c]quinazolin-5-amine]
 | 0.0273 | COc1cccc2c1nc(N)n1nc(CCN[C@@H](C)c3ccc(C(F)(F)F)cc3)nc21 [Example 22.7, (S)-7-methoxy-2-(2-((1-(4-(trifluoromethyl)phenyl)ethyl)amino)ethyl)-[1,2,4]triazolo[1,5-c]quinazolin-5-amine]
 | 0.0109 | COc1cccc2c1nc(N)n1nc(CCNCC(F)(F)C(F)(F)F)nc21 [Example 22.8, 7-methoxy-2-(2-((2,2,3,3,3-pentafluoropropyl)amino)ethyl)-[1,2,4]triazolo[1,5-c] quinazolin-5-amine]
 | 0.0122 | COc1cccc2c1nc(N)n1nc(CCNCC(C)(F)F)nc21 [Example 23.3, 2-(2-((2,2-difluoropropyl)amino)ethyl)-7-methoxy-[1,2,4]triazolo[1,5-c]quinazolin-5-amine]
 | 0.0058 | COc1cccc2c1nc(N)n1nc(CCN[C@H](C)C(F)(F)F)nc21 [Example 23.4, (R)-7-methoxy-2-(2-((1,1,1-trifluoropropan-2-yl)amino)ethyl)-[1,2,4]triazolo[1,5-c]quinazolin-5-amine]

Further lines, the compound ahead of its results:

SMILES | IC50 [1] [µM] | IC50 [2] [µM]
COc1cccc2c1nc(N)n1nc(CNC(=O)c3ccc(C(C)(O)C(F)(F)F)cc3)nc21 (single isomer, unassigned) [Example 2.7A, (S or R)-N-((5-amino-7-methoxy-[1,2,4]triazolo[1,5-c]quinazolin-2-yl)methyl)-4-(1,1,1-trifluoro-2-hydroxypropan-2-yl)benzamide] | 0.0003 | 
COc1cccc2c1nc(N)n1nc(CNC(=O)c3ccc(C(C)(O)C(F)(F)F)cc3)nc21 (single isomer, unassigned) [Example 2.7B, (R or S)-N-((5-amino-7-methoxy-[1,2,4]triazolo[1,5-c]quinazolin-2-yl)methyl)-4-(1,1,1-trifluoro-2-hydroxypropan-2-yl)benzamide] | 0.0005 | 
COc1cccc2c1nc(N)n1nc(CNC3CCc4c(nnn4C4CC(F)(F)C4)C3)nc21 (single isomer, unassigned) [Example 11.2A, (S or R)-2-(((1-(3,3-difluorocyclobutyl)-4,5,6,7-tetrahydro-1H-benzo[d][1,2,3]triazol-5-yl)amino)methyl)-7-methoxy-[1,2,4]triazolo[1,5-c]quinazolin-5-amine] | 0.0006 | 
COc1cccc2c1nc(N)n1nc(CNC3CCc4c(nnn4C4CC(F)(F)C4)C3)nc21 (single isomer, unassigned) [Example 11.2B, (R or S)-2-(((1-(3,3-difluorocyclobutyl)-4,5,6,7-tetrahydro-1H-benzo[d][1,2,3]triazol-5-yl)amino)methyl)-7-methoxy-[1,2,4]triazolo[1,5-c]quinazolin-5-amine] | 0.0034 | 
COc1cc(F)cc2c1nc(N)n1nc(CNC(c3ccc(C(C)(C)O)cc3)C(F)(F)F)nc21 (single isomer, unassigned) [Example 25.3A, (S or R)-2-(4-(1-(((5-amino-9-fluoro-7-methoxy-[1,2,4]triazolo[1,5-c]quinazolin-2-yl)methyl)amino)-2,2,2-trifluoroethyl)phenyl)propan-2-ol] | 0.0193 | 
COc1cc(F)cc2c1nc(N)n1nc(CNC(c3ccc(C(C)(C)O)cc3)C(F)(F)F)nc21 (single isomer, unassigned) [Example 25.3B, (R or S)-2-(4-(1-(((5-amino-9-fluoro-7-methoxy-[1,2,4]triazolo[1,5-c]quinazolin-2-yl)methyl)amino)-2,2,2-trifluoroethyl)phenyl)propan-2-ol] | 0.0292 | 
COc1cccc2c1nc(N)n1nc(CNC(=O)c3c(C)cc(C(C)(C)O)cc3C)nc21 [Entry 1.3] | 0.0102 | 
COc1cc(F)cc2c1nc(N)n1nc(CNC(=O)c3ccc(C(C)(C)O)cc3Cl)nc21 [Entry 3.5] | 0.0025 | 
COc1cccc2c1nc(N)n1nc(C[C@@H](C)NCc3oc(C)nc3C)nc21 [Example 24.3, (R)-2-(2-(((2,4-dimethyloxazol-5-yl)methyl)amino)propyl)-7-methoxy-[1,2,4]triazolo[1,5-c]quinazolin-5-amine] |  | 0.0111
